Results reported in patent US8193235B2, “Compositions and methods for establishing and maintaining stem cells in an undifferentiated state” (University of Kansas, priority 2009, dated 2012).

Key:
Ezh2−/− ES cells = Ezh2−/− ES cells on collagen-IV without LIF; format: cell-based, mouse; conditions: absence of LIF
Protocol: Ezh2^−/− ES Cells. Ezh2^−/− cells, passage 6, were maintained on irradiated MEF feeders in standard ES medium (DMEM; Dulbecco's modified Eagle's medium) supplemented with 15% heat-inactivated fetal calf serum, 0.1 mM 2-mercaptoethanol, 2 mM L-glutamine, 0.1 mM non-essential amino acid, 1% of nucleoside mix (100× stock, Sigma), 1000 U/mi LIF and 50 U/ml Penicillin/Streptomycin. For experiments involving Gö6983, Ezh2^−/− cells were passed once without feeders and used for subsequent analysis. For experiments on collagen IV, ˜3×10^4 Ezh2^−/− cells were plated in each well of a six-well tissue culture plate in the presence or absence of LIF and Gö6983.

129/Sv blastocysts = assay: De novo derivation of new ES cells from blastocysts; format: cell-based, mouse
Protocol: De Novo Derivation of New ES Cells With Gö6983. Blastocysts from 6-week-old female 12952/SvPasCrl (129/Sv) strain mice (Charles River Laboratory, Wilmington, Mass.) were isolated at 3.5 day post-coitum. Isolated blasotocysts were plated on gelatin-coated plastic in medium containing Gö6983 and FBS and without LIF. To obtain ES cell colonies, blastocyst outgrowths were disaggregated with trypsin and replated on gelatin-coated wells with Gö6983 and FBS. ES cell colonies were expanded by replating with Gö6983 at clonal or higher density. For in vitro analysis, cells were differentiated following the same protocol described herein. After six passages with Gö6983-condition, chromosome numbers were checked by karyotyping, and injected in C57BL/6 blastocysts for chimera generation.

NF-κB = assay: NF-κB5X-Luc reporter activation; format: cell-based, mouse; conditions: E14 cells
Protocol: Analysis of NF-κB5X-Luc Reporter Activation. E14 ES or PKCζkd cells (2-4×10^4) were seeded on 24-well plates […]. Cells were transfected with 1 μg of plasmid ([…] NF-kB cis-Reporting System, Stratagene) in OPTI-MEM. Transfection mixture was removed after 5 hours with appropriate media. Luciferase activity was measured 24 hours post-transfection and expressed relative to total protein present in the whole cell lysate.

Akt = Akt phosphorylation in mESCs; format: cell-based, mouse
Protocol: E14 ES Cell Cultures. Cells were grown in ES-IMDM media (Lonza, Walkersville, Md.) in a feeder-free condition. ES-IMDM was supplemented with 15% serum, 10^5 U/100 ml of LIF (ESGRO, Millipore, Calif.) and 0.0124% monothioglycerol (MTG; Sigma Aldrich). Cells were grown for 3-5 days with change of medium every day. For inducing differentiation in monolayer culture and to determine the effect of Gö6983 in preventing differentiation, E14 cells were cultured on gelatin-coated plastics for 8 days without LIF. Details of experiments performed at clonal-density are described herein. To maintain E14 cells with Gö6983, serum supplemented ES-IMDM was used in the presence of 5 μM Gö6983 and was passed after every 3-5 days. For all assays involving elucidation of different signaling mechanism responsible for maintenance of pluripotency, cells from a ˜70% confluent ES culture plate were washed two times with 1× phosphate-buffered saline (PBS), trypsinized and plated on a 6-well tissue culture plate and treated with or without LIF or Gö6983 or different inhibitors for ˜10 hours followed by preparation of protein lysates and RNA. The PKCζ knocked-down E14 cells that were generated in this study were maintained in serum supplemented ES-IMDM on gelatin-coated plates in the absence of Gö6983 or LIF or any other inhibitor and passed after 3-5 days. […]

129/Sv MEFs = assay: Generation of iPS cells from MEFs; format: cell-based, mouse
Protocol: Generation of iPS Cells. iPSCs were derived using lentiviral vectors (STEMGENT), expressing four mouse transcription factors (Oct4, Sox2, Klf4 […] c-Myc) under the control of the doxycycline (Dox)-inducible tetO operator. 129/Sv MEFs were infected with viral mix following manufacturer's protocol. Twenty hours post-transduction, cells were reseeded in ES cell growth medium with either LIF or Gö6983 at a density of 5×10^4 cells per well of a 6-well plate and treated with Dox (2 μg/ml) for 48 hours. To determine the phenotype of the iPS colonies, expression of two pluripotency markers, Nanog and Rex-1, were analyzed. For further analysis, each visible iPS colony was manually picked, trypsinized, cells were re-plated at clonal and higher density in medium with Gö6983 and the expression of pluripotent markers were confirmed by RT-PCR and immunofluorescence. For chimera generation, cells from two different iPS clones were propagated at clonal density with Gö6983, expanded for four passages and were injected into blastocysts.

E14 ES cells = assay: Cell Proliferation Assay; format: cell-based; conditions: Mus musculus
Protocol: Cell Proliferation Assay. E14 ES cells were seeded and incubated for 2 days in the presence of different concentrations of Gö6983. Cell proliferation was measured with […] 96 AQUEOUS One Solution Reagent (Promega, Madison, Wis.) following the manufacturer's protocol.

DCIS.com cells = assay: Mamosphere formation of breast cancer cells; format: cell-based
Protocol: In addition to ES and iPS cells, it was determined whether blockade of PKC signaling facilitated the propagation of cancer stem cells. To that end, mamosphere formation of a breast cancer cell type known as DCIS.com was analyzed. Mamospheres are specialized structures formed by breast cancer cell types and are indicative of presence and propagation of breast cancer stem cells. […] Therefore, blockade of PKC signaling can be used to efficiently propagate and expand cancer stem cells.

## COc1ccc2c(c1)c(C1=C(c3c[nH]c4ccccc34)C(=O)NC1=O)cn2CCCN(C)C [Gö6983, 3-[1-[3-(dimethylamino)propyl]5-methoxy-1H-indol-3-yl]-4-(1H-indol-3-yl)-1H-pyrrole-2,5-dione]
Ezh2−/− ES cells
  collagen-IV-induced Ezh2−/− cell differentiation: completely inhibited
  marker expression in Ezh2−/− cells on collagen-IV: maintained expression of pluripotency markers without the induction of developmental regulator genes
129/Sv blastocysts; cultured with Gö6983
  propagation of Gö6983-derived ES cell lines at clonal density: successfully propagated in an undifferentiated state
129/Sv blastocysts; embryoid bodies, differentiated on collagen IV
  multilineage differentiation potential of established ES cell lines: readily formed embryoid bodies and expressed lineage specific markers
129/Sv blastocysts; serum and Gö6983, without LIF and feeder cells, gelatin-coated plates
  derivation of ES cell colonies from blastocyst outgrowths: multiple ES cell colonies were obtained from 10 blastocysts
NF-κB
  NFκ5x-Luc reporter gene activation: strongly inhibited
Akt
  Akt phosphorylation: not associated with Akt phosphorylation
129/Sv MEFs; FIG. 4B
  efficiency of obtaining matured iPSC colonies compared to LIF: three fold higher
129/Sv MEFs; MEFs with Oct4, Sox2, KLF4, cMyc
  time to appearance of ES cell-like iPSC colonies: 12 days
129/Sv MEFs; colonies defined by Nanog and Rex-1, FIG. 4A
  rate of obtaining iPSC colonies compared to LIF: significantly faster rate
129/Sv MEFs; with Gö6983
  propagation of iPSCs at clonal density: readily propagated at clonal density
E14 ES cells
  inhibition at 2.5 µM: ~30%
DCIS.com cells
  mamosphere formation: efficiently generated mamospheres
